This is an account of results in paper PMC9631887 (ACS Omega, 2022).

A short description of series [1]: PAMPA-GIT. As to conditions: for classification / experimental fraction absorption: PAMPA-GIT; for classification: fraction absorption classification; for Papp at 8 h, 500 μM: PAMPA. For orientation: In PAMPA a lipid-coated filter parts donor from acceptor wells.
Series [2] in a line: PAMPA-BBB.
The conditions of series [3]: QC standards; ref Zhu et al.[29]; cited from earlier work.

Structures are written as SMILES.

For `CC(C)NCC(O)COc1ccc(CC(N)=O)cc1` (stereo not shown) [atenolol], the classification entry in series [1] is “low (Low, 0–29% Fa)”.
As for `Cn1c(=O)c2c(ncn2C)n(C)c1=O` [caffeine], the classification entry in series [2] is “BBB– (Pe values <1.57 were classified as nonpermeable (BBB−))”.
Regarding `CO/N=C(\C(=O)N[C@@H]1C(=O)N2C(C(=O)O)=C(CSc3nc(=O)c(=O)[nH]n3C)CS[C@H]12)c1csc(N)n1` [ceftriaxone], in series [3], the literature fraction absorption is 1%.
A word on the Papp: it is a coefficient for how fast a substance crosses the barrier. The low end stands for slow passage, the high end for fast passage. `O=c1ccc2ccccc2o1` [coumarin]: in series [1], the Papp at 8 h, 500 μM worked out at 27.9 ×10⁻⁶ cm/s; the experimental fraction absorption was 100.00%; the classification result is “high (High, 70–100% Fa)”.
Consider `O=C(O)Cc1ccccc1Nc1c(Cl)cccc1Cl` [diclofenac], for which, in series [3], the literature fraction absorption is given as 100%. Besides, in series [1], the Papp at 8 h, 500 μM turned out to be 14 ×10⁻⁶ cm/s; the experimental fraction absorption amounted to 100.00%; the classification entry is given as “high (High, 70–100% Fa)”.
As for `CCn1cc(C(=O)O)c(=O)c2cc(F)c(N3CCNCC3)nc21` [enoxacin], the classification entry in series [2] is “BBB– (Pe values <1.57 were classified as nonpermeable (BBB−))”.
With `C[C@]12CCC(=O)C=C1CC[C@@H]1[C@@H]2[C@@H](O)C[C@@]2(C)[C@H]1CC[C@]2(O)C(=O)CO` [hydrocortisone], the experimental fraction absorption in series [1] came out at 100.00%.
In the case of `CCn1cc(C(=O)O)c(=O)c2cc(F)c(N3CCNCC3)cc21` [norfloxacin], in series [1], the experimental fraction absorption is 51.39% and the classification result is “intermediate (Intermediate, 30–69% Fa)”.
In the case of `CNC(=C[N+](=O)[O-])NCCSCc1ccc(CN(C)C)o1` [ranitidine], in series [1], the experimental fraction absorption is recorded as 49.75% and the classification result was “intermediate (Intermediate, 30–69% Fa)”.
